Data reported in ChEMBL document CHEMBL1201862, “PubChem BioAssay data set” (2004).
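48-hour exposure; five concentrations; linearly interpolated endpoints. GI50 is the concentration that inhibits growth by half.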 Calls of active or inactive are those of the source. Cut-off read from the data, not from the text of the source: active = GI50 up to about 1.1 µM and inactive = higher.

What was measured:
Test in all cases: NCI-60 cell line screen, 48 h
786-0 = tested on: 786-0
HL-60 = tested on: HL-60
SF-539 = tested on: SF-539
KM12 = tested on: KM12
SN12C = tested on: SN12C
NCI-H460 = tested on: NCI-H460
OVCAR-5 = tested on: OVCAR-5
CCRF-CEM = tested on: CCRF-CEM
SW-620 = tested on: SW-620
MDA-MB-231 = tested on: MDA-MB-231
SF-268 = tested on: SF-268
NCI-H522 = tested on: NCI-H522
HOP-62 = tested on: HOP-62
UACC-257 = tested on: UACC-257
UACC-62 = tested on: UACC-62
HCT-116 = tested on: HCT-116
HT-29 = tested on: HT-29
U-251 = tested on: U-251
MOLT-4 = tested on: MOLT-4

Row | SMILES | GI50 (786-0) | GI50 (HL-60) | GI50 (SF-539) | GI50 (KM12) | GI50 (SN12C) | GI50 (NCI-H460) | GI50 (OVCAR-5) | GI50 (CCRF-CEM) | GI50 (SW-620) | GI50 (MDA-MB-231) | GI50 (SF-268) | GI50 (NCI-H522) | GI50 (HOP-62) | GI50 (UACC-257) | GI50 (UACC-62) | GI50 (HCT-116) | GI50 (HT-29) | GI50 (U-251) | GI50 (MOLT-4)
1 | CCCCCCCCSC1=C(Cl)C(=O)C(OC)=C(OC)C1=O | 12.5 µM (inactive) | 2.11 µM (inactive) | 14.2 µM (inactive) | 7.53 µM (inactive) | 5.09 µM (inactive) | 15.4 µM (inactive) | 6.67 µM (inactive) | 5.68 µM (inactive) | 10.6 µM (inactive) | 12.4 µM (inactive) | 12.4 µM (inactive) | 2.47 µM (inactive) | 17.2 µM (inactive) | 5.6 µM (inactive) | 10.3 µM (inactive) | 4.83 µM (inactive) | 16.9 µM (inactive) | 10.5 µM (inactive) | 3.12 µM (inactive)
2 | Brc1cccc(C2(CCCC3(c4cccc(Br)n4)OCCO3)OCCO2)n1 | 59.7 µM (inactive) | – | 39.2 µM (inactive) | > 100 µM (inactive) | > 100 µM (inactive) | > 100 µM (inactive) | > 100 µM (inactive) | – | > 100 µM (inactive) | > 100 µM (inactive) | 21.2 µM (inactive) | 36.6 µM (inactive) | > 100 µM (inactive) | > 100 µM (inactive) | – | > 100 µM (inactive) | – | – | > 100 µM (inactive)
3 | O=C(c1ccco1)C1CC(c2ccc3ccccc3c2O)=NN1 (configuration not stated) | 98.9 µM (inactive) | – | > 100 µM (inactive) | > 100 µM (inactive) | > 100 µM (inactive) | > 100 µM (inactive) | > 100 µM (inactive) | 16.8 µM (inactive) | 84.1 µM (inactive) | 30.8 µM (inactive) | > 100 µM (inactive) | > 100 µM (inactive) | > 100 µM (inactive) | 62.2 µM (inactive) | > 100 µM (inactive) | 57.4 µM (inactive) | 86.5 µM (inactive) | > 100 µM (inactive) | 36.7 µM (inactive)
4 | Cc1cc2nc3c(N)nn(CCN(C)C)c3nc2cc1C | 40.1 µM (inactive) | – | 28.1 µM (inactive) | 45.5 µM (inactive) | 36.7 µM (inactive) | 32.8 µM (inactive) | 52 µM (inactive) | 42.3 µM (inactive) | 38.7 µM (inactive) | 33.8 µM (inactive) | 38.5 µM (inactive) | 40.1 µM (inactive) | 26.4 µM (inactive) | 41.7 µM (inactive) | 39.5 µM (inactive) | 33.1 µM (inactive) | 27.4 µM (inactive) | 33.1 µM (inactive) | 41.8 µM (inactive)
5 | Cn1c(O)c(C2=Nc3ccccc3C2=O)c2ccccc21 | > 100 µM (inactive) | – | – | > 100 µM (inactive) | > 100 µM (inactive) | > 100 µM (inactive) | > 100 µM (inactive) | > 100 µM (inactive) | > 100 µM (inactive) | > 100 µM (inactive) | > 100 µM (inactive) | > 100 µM (inactive) | > 100 µM (inactive) | > 100 µM (inactive) | > 100 µM (inactive) | > 100 µM (inactive) | > 100 µM (inactive) | > 100 µM (inactive) | > 100 µM (inactive)
6 | NCCCC[C@H](N)C(=O)Nc1ccc(-c2nc3ccccc3s2)cc1Cl | 3.05 µM (inactive) | – | – | 2.97 µM (inactive) | 14.6 µM (inactive) | 0.271 µM (active) | 0.34 µM (active) | 3.28 µM (inactive) | 11.5 µM (inactive) | 11.6 µM (inactive) | 8.34 µM (inactive) | 4.84 µM (inactive) | 13.2 µM (inactive) | 14.1 µM (inactive) | 14.6 µM (inactive) | 0.713 µM (active) | 6.79 µM (inactive) | 2.65 µM (inactive) | 3 µM (inactive)
7 | COc1cccc(-c2cc(=O)c3cc(N4CCCCC4)ccc3[nH]2)c1 | < 0.0119 µM (active) | < 0.01 µM (active) | < 0.01 µM (active) | < 0.01 µM (active) | 0.0332 µM (active) | < 0.0199 µM (active) | – | < 0.01 µM (active) | < 0.0145 µM (active) | 0.0432 µM (active) | 0.16 µM (active) | < 0.0177 µM (active) | < 0.0145 µM (active) | > 100 µM (inactive) | < 0.01 µM (active) | < 0.01 µM (active) | < 0.0129 µM (active) | < 0.0147 µM (active) | 0.024 µM (active)
8 | CN(C)C(=O)OC1=CC2CCC(C1)N2C (configuration not stated) | > 100 µM (inactive) | – | > 100 µM (inactive) | > 100 µM (inactive) | > 100 µM (inactive) | 32.4 µM (inactive) | > 100 µM (inactive) | 28.8 µM (inactive) | > 100 µM (inactive) | > 100 µM (inactive) | > 100 µM (inactive) | > 100 µM (inactive) | > 100 µM (inactive) | > 100 µM (inactive) | > 100 µM (inactive) | > 100 µM (inactive) | > 100 µM (inactive) | 87.3 µM (inactive) | 52.8 µM (inactive)
9 | CC1CN=C(Nc2ccc(F)c(Cl)c2)S1 (configuration not stated) | > 100 µM (inactive) | 29.9 µM (inactive) | > 100 µM (inactive) | > 100 µM (inactive) | – | > 100 µM (inactive) | > 100 µM (inactive) | 29.7 µM (inactive) | > 100 µM (inactive) | > 100 µM (inactive) | 92.3 µM (inactive) | 58.2 µM (inactive) | > 100 µM (inactive) | 86.5 µM (inactive) | > 100 µM (inactive) | 71 µM (inactive) | > 100 µM (inactive) | 95.3 µM (inactive) | > 10 µM (inactive)
10 | CC(C)C(=O)OCC1OC(n2c(Br)nc3c(=O)[nH]c(N)nc32)C(OC(=O)C(C)C)C1OC(=O)C(C)C (configuration not stated) | 23.1 µM (inactive) | – | – | – | 48 µM (inactive) | 23.7 µM (inactive) | 75.2 µM (inactive) | – | 29.2 µM (inactive) | > 100 µM (inactive) | 37.1 µM (inactive) | 35.2 µM (inactive) | > 100 µM (inactive) | > 100 µM (inactive) | 31.8 µM (inactive) | 30.1 µM (inactive) | 17.8 µM (inactive) | – | 19.3 µM (inactive)
11 | O=[N+]([O-])c1ccc(/C(=C\c2ccccc2)Cn2ccnc2)cc1 | 34.3 µM (inactive) | 19 µM (inactive) | 43.4 µM (inactive) | 33 µM (inactive) | 35 µM (inactive) | 32 µM (inactive) | 61.5 µM (inactive) | 28 µM (inactive) | 44.7 µM (inactive) | 13.1 µM (inactive) | – | 20 µM (inactive) | 54.1 µM (inactive) | 37.6 µM (inactive) | 33.5 µM (inactive) | 23.6 µM (inactive) | 14 µM (inactive) | 33.3 µM (inactive) | 24 µM (inactive)
12 | O=C(OCCN=c1c2ccccc2ccc2ccccc12)c1cc([N+](=O)[O-])cc([N+](=O)[O-])c1 | > 100 µM (inactive) | > 100 µM (inactive) | > 100 µM (inactive) | > 100 µM (inactive) | > 100 µM (inactive) | > 100 µM (inactive) | > 100 µM (inactive) | > 100 µM (inactive) | > 100 µM (inactive) | > 100 µM (inactive) | > 100 µM (inactive) | – | > 100 µM (inactive) | > 100 µM (inactive) | > 100 µM (inactive) | > 100 µM (inactive) | > 100 µM (inactive) | > 100 µM (inactive) | > 100 µM (inactive)
13 | NNC(=O)c1ccc(OCc2nc3ccccc3[nH]2)cc1 | > 100 µM (inactive) | 43.7 µM (inactive) | > 100 µM (inactive) | > 100 µM (inactive) | > 100 µM (inactive) | 31.8 µM (inactive) | > 100 µM (inactive) | – | > 100 µM (inactive) | > 100 µM (inactive) | 89.3 µM (inactive) | 30 µM (inactive) | – | 66.4 µM (inactive) | > 100 µM (inactive) | 29.1 µM (inactive) | > 100 µM (inactive) | > 100 µM (inactive) | 14.8 µM (inactive)
14 | CCOC(=O)c1cc(C(=O)c2ccccc2)n2nc(-c3ccc(Cl)cc3)ccc12 | 15.2 µM (inactive) | > 100 µM (inactive) | – | 20 µM (inactive) | 25.2 µM (inactive) | 22.1 µM (inactive) | 23.3 µM (inactive) | > 100 µM (inactive) | 93.8 µM (inactive) | 36.2 µM (inactive) | 13.5 µM (inactive) | 18.5 µM (inactive) | 19.5 µM (inactive) | 30.1 µM (inactive) | 17.3 µM (inactive) | 44.7 µM (inactive) | 23.7 µM (inactive) | 23.1 µM (inactive) | > 100 µM (inactive)
15 | COC(=O)C[C@H](COCc1ccccc1)NC(=O)C[C@H](COCc1ccccc1)NC(=O)OC(C)(C)C | 20.4 µM (inactive) | > 100 µM (inactive) | 34.7 µM (inactive) | 45.3 µM (inactive) | 26.4 µM (inactive) | – | 33.8 µM (inactive) | > 100 µM (inactive) | 55.8 µM (inactive) | 36.6 µM (inactive) | 20 µM (inactive) | 21.2 µM (inactive) | 21.6 µM (inactive) | – | 36.6 µM (inactive) | 27.5 µM (inactive) | 30 µM (inactive) | 27.9 µM (inactive) | 56 µM (inactive)
16 | CC[S+]1C2=C(CC(C)(C)CC2=O)[N-]c2ccccc21 (configuration not stated) | > 100 µM (inactive) | > 100 µM (inactive) | – | > 100 µM (inactive) | > 100 µM (inactive) | > 100 µM (inactive) | > 100 µM (inactive) | > 100 µM (inactive) | > 100 µM (inactive) | > 100 µM (inactive) | > 100 µM (inactive) | > 100 µM (inactive) | > 100 µM (inactive) | > 100 µM (inactive) | > 100 µM (inactive) | > 100 µM (inactive) | > 100 µM (inactive) | > 100 µM (inactive) | > 100 µM (inactive)
